Results as given in patent US6914045B2, “Glycopeptide antibiotics” (Wyeth Holdings Corporation, priority 2001, dated 2005).
Values after ≈ are worked out from the molar mass of the structure shown.

What was measured:
Test in all cases: in vitro antibacterial evaluation, MIC by broth dilution
Type in all cases: cell-based
[1] = tested on: Staphylococcus sp.; conditions: broth dilution, 18 hours at 35° C.; for MIC Staphylococcus aureus (GC 1131): strain GC 1131
Summary of the method: (§1)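 Broth dilution per NCCLS standard M7-A2 in Muller-Hinton II […], with an inoculum of 5×10^5 CFU/mL and antibiotic spanning 64-0.06 μg/mL. The MIC is the lowest concentration that inhibits growth of the organism.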

[2] = tested on: Enterococcus sp.; conditions: broth dilution, 18 hours at 35° C.
Summary of the method: as §1

[3] = tested on: Streptococcus sp.; conditions: broth dilution, 18 hours at 35° C.
Summary of the method: as §1

[4] = tested on: Escherichia coli
Summary of the method: as §1

CC(c1ccccc1)C1NC(=O)CNC(=O)C(CO)NC(=O)C(C(O)C2CNC(=N)N2C2OC(CO)C(O)C(O)C2O)NC(=O)C(C(O)C2CNC(=N)N2)NC(=O)C(Cc2ccc(OC3OC(CO)C(OC4OC5COC(c6cccc(Cl)c6)OC5C(O)C4O)C(O)C3O)cc2)NC1=O (stereo not drawn) [Example 138, Cyclo[glycyl-β-methylphenylalanyl-O-[4-O-[4,6-O-(3-chlorobenzylidene)hexopyranosyl]-hexopyranosyl]tyrosyl-3-(2-iminoimidazolidin-4-yl)seryl-3-(3-hexopyranosyl-2-iminoimidazolidin-4-yl)serylseryl]]
MIC Staphylococcus aureus (GC 1131) ([1]; inoculum 5×10^5 CFU/mL): 2 µg/mL (≈ 1.41 µM)
MIC Staphylococcus aureus (ATCC 29213) ([1]; strain ATCC 29213): 2 µg/mL (≈ 1.41 µM)
MIC Staphylococcus aureus (GC 1131) [1]: 2 µg/mL (≈ 1.41 µM)
MIC Staphylococcus aureus (GC 3051) ([1]; strain GC 3051): 2 µg/mL (≈ 1.41 µM)
MIC Staphylococcus aureus (GC 3053) ([1]; strain GC 3053): 2 µg/mL (≈ 1.41 µM)
MIC Staphylococcus aureus (GC 4541) ([1]; strain GC 4541): 2 µg/mL (≈ 1.41 µM)
MIC Staphylococcus aureus (GC 4542) ([1]; strain GC 4542): 2 µg/mL (≈ 1.41 µM)
MIC Staphylococcus aureus-SMITH (GC 4543) ([1]; strain GC 4543): 1 µg/mL (≈ 0.705 µM)
MIC Staphylococcus aureus (GC 4544) ([1]; strain GC 4544): 2 µg/mL (≈ 1.41 µM)
MIC Staphylococcus aureus (GC 4545) ([1]; strain GC 4545): 2 µg/mL (≈ 1.41 µM)
MIC Staphylococcus haemolyticus (GC 4546) ([1]; strain GC 4546): 2 µg/mL (≈ 1.41 µM)
MIC Coagulase Negative Staphylococcus (GC 4547) ([1]; strain GC 4547): 4 µg/mL (≈ 2.82 µM)
MIC Coagulase Negative Staphylococcus (GC 4548) ([1]; strain GC 4548): 1 µg/mL (≈ 0.705 µM)
MIC Coagulase Negative Staphylococcus (GC 4549) ([1]; strain GC 4549): 1 µg/mL (≈ 0.705 µM)
MIC Coagulase Negative Staphylococcus (GC 4551) ([1]; strain GC 4551): 2 µg/mL (≈ 1.41 µM)
MIC Coagulase Negative Staphylococcus (GC 6257) ([1]; strain GC 6257): 2 µg/mL (≈ 1.41 µM)
MIC Staphylococcus aureus-SMITH (GC 4543) ([1]; strain SMITH GC 4543): 1 µg/mL (≈ 0.705 µM)
MIC Enterococcus avium (GC 4558) ([2]; Enterococcus avium (GC 4558)): 4 µg/mL (≈ 2.82 µM)
MIC Enterococcus faecalis (ATCC 29212) ([2]; Enterococcus faecalis (ATCC 29212)): 4 µg/mL (≈ 2.82 µM)
MIC Enterococcus faecalis (GC 2242) ([2]; Enterococcus faecalis (GC 2242)): 4 µg/mL (≈ 2.82 µM)
MIC Enterococcus faecalis (GC 2691) ([2]; Enterococcus faecalis (GC 2691)): 8 µg/mL (≈ 5.64 µM)
MIC Enterococcus faecalis (GC 3059) ([2]; Enterococcus faecalis (GC 3059)): 4 µg/mL (≈ 2.82 µM)
MIC Enterococcus faecalis (GC 4552) ([2]; Enterococcus faecalis (GC 4552)): 4 µg/mL (≈ 2.82 µM)
MIC Enterococcus faecalis (GC 4553) ([2]; Enterococcus faecalis (GC 4553)): 8 µg/mL (≈ 5.64 µM)
MIC Enterococcus faecalis (GC 4554) ([2]; Enterococcus faecalis (GC 4554)): 8 µg/mL (≈ 5.64 µM)
MIC Enterococcus faecalis (GC 6189) ([2]; Enterococcus faecalis (GC 6189)): 4 µg/mL (≈ 2.82 µM)
MIC Enterococcus faecium (GC 2243) ([2]; Enterococcus faecium (GC 2243)): 4 µg/mL (≈ 2.82 µM)
MIC Enterococcus faecium (GC 4556) ([2]; Enterococcus faecium (GC 4556)): 8 µg/mL (≈ 5.64 µM)
MIC Enterococcus faecium (GC 4557) ([2]; Enterococcus faecium (GC 4557)): 2 µg/mL (≈ 1.41 µM)
MIC Enterococcus faecalis (ATCC 29212) ([2]; strain ATCC 29212): 4 µg/mL (≈ 2.82 µM)
MIC Enterococcus faecalis (GC 2242) ([2]; strain GC 2242): 4 µg/mL (≈ 2.82 µM)
MIC Enterococcus faecium (GC 2243) ([2]; strain GC 2243): 4 µg/mL (≈ 2.82 µM)
MIC Enterococcus faecalis (GC 2691) ([2]; strain GC 2691): 8 µg/mL (≈ 5.64 µM)
MIC Enterococcus faecalis (GC 3059) ([2]; strain GC 3059): 4 µg/mL (≈ 2.82 µM)
MIC Enterococcus faecalis (GC 4552) ([2]; strain GC 4552): 4 µg/mL (≈ 2.82 µM)
MIC Enterococcus faecalis (GC 4553) ([2]; strain GC 4553): 8 µg/mL (≈ 5.64 µM)
MIC Enterococcus faecalis (GC 4554) ([2]; strain GC 4554): 8 µg/mL (≈ 5.64 µM)
MIC Enterococcus faecium (GC 4556) ([2]; strain GC 4556): 8 µg/mL (≈ 5.64 µM)
MIC Enterococcus faecium (GC 4557) ([2]; strain GC 4557): 2 µg/mL (≈ 1.41 µM)
MIC Enterococcus avium (GC 4558) ([2]; strain GC 4558): 4 µg/mL (≈ 2.82 µM)
MIC Enterococcus faecalis (GC 6189) ([2]; strain GC 6189): 4 µg/mL (≈ 2.82 µM)
MIC Streptococcus agalactiae (GC 4564) ([3]; Streptococcus agalactiae (GC 4564)): 0.12 µg/mL (≈ 0.0846 µM)
MIC Streptococcus pneumoniae (ATCC 6301) ([3]; Streptococcus pneumoniae (ATCC 6301)): <0.06 µg/mL
MIC Streptococcus pneumoniae (GC 1894) ([3]; Streptococcus pneumoniae (GC 1894)): <0.06 µg/mL
MIC Streptococcus pneumoniae (GC 4565) ([3]; Streptococcus pneumoniae (GC 4565)): <0.06 µg/mL
MIC Streptococcus pyogenes (GC 4563) ([3]; Streptococcus pyogenes (GC 4563)): 0.25 µg/mL (≈ 0.176 µM)
MIC Streptococcus pneumoniae (ATCC 6301) ([3]; strain ATCC 6301): <0.06 µg/mL
MIC Streptococcus pneumoniae (GC 1894) ([3]; strain GC 1894): <0.06 µg/mL
MIC Streptococcus pyogenes (GC 4563) ([3]; strain GC 4563): 0.25 µg/mL (≈ 0.176 µM)
MIC Streptococcus agalactiae (GC 4564) ([3]; strain GC 4564): 0.12 µg/mL (≈ 0.0846 µM)
MIC Streptococcus pneumoniae (GC 4565) ([3]; strain GC 4565): <0.06 µg/mL
MIC Escherichia coli (ATCC 25922) ([4]; strain ATCC 25922, 18 hours at 35° C.): 64 µg/mL (≈ 45.1 µM)
MIC Escherichia coli (GC 4559) ([4]; strain GC 4559, 18 hours at 35° C.): 64 µg/mL (≈ 45.1 µM)
MIC Escherichia coli (GC 4560) ([4]; strain GC 4560, 18 hours at 35° C.): 0.5 µg/mL (≈ 0.353 µM)
